In BigSolDB 2.1:

COc1cccc(C(=O)O)c1OC
solubility (mole fraction) (in 1,4-dioxane, 288.15 K): 0.0585
solubility (mole fraction) (in 1,4-dioxane, 293.15 K): 0.069
solubility (mole fraction) (in 1,4-dioxane, 298.15 K): 0.0805
solubility (mole fraction) (in 1,4-dioxane, 303.15 K): 0.0934
solubility (mole fraction) (in 1,4-dioxane, 308.15 K): 0.11
solubility (mole fraction) (in 1,4-dioxane, 313.15 K): 0.127
solubility (mole fraction) (in 1,4-dioxane, 318.15 K): 0.148
solubility (mole fraction) (in 2-ethoxyethanol, 278.15 K): 0.0418
solubility (mole fraction) (in 2-ethoxyethanol, 283.15 K): 0.0485
solubility (mole fraction) (in 2-ethoxyethanol, 288.15 K): 0.0552
solubility (mole fraction) (in 2-ethoxyethanol, 293.15 K): 0.0644
solubility (mole fraction) (in 2-ethoxyethanol, 298.15 K): 0.0733
solubility (mole fraction) (in 2-ethoxyethanol, 303.15 K): 0.084
solubility (mole fraction) (in 2-ethoxyethanol, 308.15 K): 0.0974
solubility (mole fraction) (in 2-ethoxyethanol, 313.15 K): 0.109
solubility (mole fraction) (in 2-ethoxyethanol, 318.15 K): 0.128
solubility (mole fraction) (in 2-ethoxyethanol, 323.15 K): 0.146
solubility (mole fraction) (in acetonitrile, 278.15 K): 0.0108
solubility (mole fraction) (in acetonitrile, 283.15 K): 0.0133
solubility (mole fraction) (in acetonitrile, 288.15 K): 0.0167
solubility (mole fraction) (in acetonitrile, 293.15 K): 0.0204
solubility (mole fraction) (in acetonitrile, 298.15 K): 0.0254
solubility (mole fraction) (in acetonitrile, 303.15 K): 0.0309
solubility (mole fraction) (in acetonitrile, 308.15 K): 0.0385
solubility (mole fraction) (in acetonitrile, 313.15 K): 0.0474
solubility (mole fraction) (in acetonitrile, 318.15 K): 0.059
solubility (mole fraction) (in acetonitrile, 323.15 K): 0.0734
solubility (mole fraction) (in ethanol, 278.15 K): 0.0131
solubility (mole fraction) (in ethanol, 283.15 K): 0.0165
solubility (mole fraction) (in ethanol, 288.15 K): 0.0202
solubility (mole fraction) (in ethanol, 293.15 K): 0.0252
solubility (mole fraction) (in ethanol, 298.15 K): 0.0304
solubility (mole fraction) (in ethanol, 303.15 K): 0.0384
solubility (mole fraction) (in ethanol, 308.15 K): 0.0466
solubility (mole fraction) (in ethanol, 313.15 K): 0.0592
solubility (mole fraction) (in ethanol, 318.15 K): 0.0714
solubility (mole fraction) (in ethanol, 323.15 K): 0.0884
solubility (mole fraction) (in ethyl acetate, 278.15 K): 0.0133
solubility (mole fraction) (in ethyl acetate, 283.15 K): 0.0159
solubility (mole fraction) (in ethyl acetate, 288.15 K): 0.0189
solubility (mole fraction) (in ethyl acetate, 293.15 K): 0.023
solubility (mole fraction) (in ethyl acetate, 298.15 K): 0.0271
solubility (mole fraction) (in ethyl acetate, 303.15 K): 0.0332
solubility (mole fraction) (in ethyl acetate, 308.15 K): 0.0391
solubility (mole fraction) (in ethyl acetate, 313.15 K): 0.0464
solubility (mole fraction) (in ethyl acetate, 318.15 K): 0.057
solubility (mole fraction) (in ethyl acetate, 323.15 K): 0.0685
solubility (mole fraction) (in ethylene glycol, 278.15 K): 0.0468
solubility (mole fraction) (in ethylene glycol, 283.15 K): 0.0529
solubility (mole fraction) (in ethylene glycol, 288.15 K): 0.0616
solubility (mole fraction) (in ethylene glycol, 293.15 K): 0.0708
solubility (mole fraction) (in ethylene glycol, 298.15 K): 0.0801
solubility (mole fraction) (in ethylene glycol, 303.15 K): 0.092
solubility (mole fraction) (in ethylene glycol, 308.15 K): 0.104
solubility (mole fraction) (in ethylene glycol, 313.15 K): 0.12
solubility (mole fraction) (in ethylene glycol, 318.15 K): 0.137
solubility (mole fraction) (in ethylene glycol, 323.15 K): 0.154
solubility (mole fraction) (in isopropanol, 278.15 K): 0.00832
solubility (mole fraction) (in isopropanol, 283.15 K): 0.0106
solubility (mole fraction) (in isopropanol, 288.15 K): 0.0138
solubility (mole fraction) (in isopropanol, 293.15 K): 0.0175
solubility (mole fraction) (in isopropanol, 298.15 K): 0.0233
solubility (mole fraction) (in isopropanol, 303.15 K): 0.0291
solubility (mole fraction) (in isopropanol, 308.15 K): 0.0384
solubility (mole fraction) (in isopropanol, 313.15 K): 0.0482
solubility (mole fraction) (in isopropanol, 318.15 K): 0.0632
solubility (mole fraction) (in isopropanol, 323.15 K): 0.0791
solubility (mole fraction) (in isopropyl acetate, 278.15 K): 0.00953
solubility (mole fraction) (in isopropyl acetate, 283.15 K): 0.0111
solubility (mole fraction) (in isopropyl acetate, 288.15 K): 0.0137
solubility (mole fraction) (in isopropyl acetate, 293.15 K): 0.0162
solubility (mole fraction) (in isopropyl acetate, 298.15 K): 0.0198
solubility (mole fraction) (in isopropyl acetate, 303.15 K): 0.0237
solubility (mole fraction) (in isopropyl acetate, 308.15 K): 0.029
solubility (mole fraction) (in isopropyl acetate, 313.15 K): 0.0339
solubility (mole fraction) (in isopropyl acetate, 318.15 K): 0.0425
solubility (mole fraction) (in isopropyl acetate, 323.15 K): 0.0499
solubility (mole fraction) (in methanol, 278.15 K): 0.0151
solubility (mole fraction) (in methanol, 283.15 K): 0.0192
solubility (mole fraction) (in methanol, 288.15 K): 0.0229
solubility (mole fraction) (in methanol, 293.15 K): 0.0288
solubility (mole fraction) (in methanol, 298.15 K): 0.0348
solubility (mole fraction) (in methanol, 303.15 K): 0.0446
solubility (mole fraction) (in methanol, 308.15 K): 0.0535
solubility (mole fraction) (in methanol, 313.15 K): 0.0682
solubility (mole fraction) (in methanol, 318.15 K): 0.0838
solubility (mole fraction) (in methanol, 323.15 K): 0.101
solubility (mole fraction) (in methyl acetate, 278.15 K): 0.0166
solubility (mole fraction) (in methyl acetate, 283.15 K): 0.0197
solubility (mole fraction) (in methyl acetate, 288.15 K): 0.0236
solubility (mole fraction) (in methyl acetate, 293.15 K): 0.0282
solubility (mole fraction) (in methyl acetate, 298.15 K): 0.034
solubility (mole fraction) (in methyl acetate, 303.15 K): 0.041
solubility (mole fraction) (in methyl acetate, 308.15 K): 0.0494
solubility (mole fraction) (in methyl acetate, 313.15 K): 0.0589
solubility (mole fraction) (in methyl acetate, 318.15 K): 0.0719
solubility (mole fraction) (in methyl acetate, 323.15 K): 0.0862
solubility (mole fraction) (in n-butanol, 278.15 K): 0.00922
solubility (mole fraction) (in n-butanol, 283.15 K): 0.0116
solubility (mole fraction) (in n-butanol, 288.15 K): 0.0144
solubility (mole fraction) (in n-butanol, 293.15 K): 0.0183
solubility (mole fraction) (in n-butanol, 298.15 K): 0.0219
solubility (mole fraction) (in n-butanol, 303.15 K): 0.0284
solubility (mole fraction) (in n-butanol, 308.15 K): 0.0362
solubility (mole fraction) (in n-butanol, 313.15 K): 0.0449
solubility (mole fraction) (in n-butanol, 318.15 K): 0.0562
solubility (mole fraction) (in n-butanol, 323.15 K): 0.0716
solubility (mole fraction) (in n-butyl acetate, 278.15 K): 0.00923
solubility (mole fraction) (in n-butyl acetate, 283.15 K): 0.0111
solubility (mole fraction) (in n-butyl acetate, 288.15 K): 0.0134
solubility (mole fraction) (in n-butyl acetate, 293.15 K): 0.016
solubility (mole fraction) (in n-butyl acetate, 298.15 K): 0.0195
solubility (mole fraction) (in n-butyl acetate, 303.15 K): 0.0234
solubility (mole fraction) (in n-butyl acetate, 308.15 K): 0.0286
solubility (mole fraction) (in n-butyl acetate, 313.15 K): 0.0342
solubility (mole fraction) (in n-butyl acetate, 318.15 K): 0.0428
solubility (mole fraction) (in n-butyl acetate, 323.15 K): 0.0506
solubility (mole fraction) (in n-propanol, 278.15 K): 0.00925
solubility (mole fraction) (in n-propanol, 283.15 K): 0.0122
solubility (mole fraction) (in n-propanol, 288.15 K): 0.0151
solubility (mole fraction) (in n-propanol, 293.15 K): 0.0197
solubility (mole fraction) (in n-propanol, 298.15 K): 0.0243
solubility (mole fraction) (in n-propanol, 303.15 K): 0.0316
solubility (mole fraction) (in n-propanol, 308.15 K): 0.0386
solubility (mole fraction) (in n-propanol, 313.15 K): 0.05
solubility (mole fraction) (in n-propanol, 318.15 K): 0.0618
solubility (mole fraction) (in n-propanol, 323.15 K): 0.0793
solubility (mole fraction) (in n-propyl acetate, 278.15 K): 0.0106
solubility (mole fraction) (in n-propyl acetate, 283.15 K): 0.0133
solubility (mole fraction) (in n-propyl acetate, 288.15 K): 0.0154
solubility (mole fraction) (in n-propyl acetate, 293.15 K): 0.0193
solubility (mole fraction) (in n-propyl acetate, 298.15 K): 0.0224
solubility (mole fraction) (in n-propyl acetate, 303.15 K): 0.0279
solubility (mole fraction) (in n-propyl acetate, 308.15 K): 0.0326
solubility (mole fraction) (in n-propyl acetate, 313.15 K): 0.0403
solubility (mole fraction) (in n-propyl acetate, 318.15 K): 0.0468
solubility (mole fraction) (in n-propyl acetate, 323.15 K): 0.0583
solubility (mole fraction) (in water, 278.15 K): 4.79e-05
solubility (mole fraction) (in water, 283.15 K): 6.1e-05
solubility (mole fraction) (in water, 288.15 K): 7.77e-05
solubility (mole fraction) (in water, 293.15 K): 0.0001
solubility (mole fraction) (in water, 298.15 K): 0.000125
solubility (mole fraction) (in water, 303.15 K): 0.000162
solubility (mole fraction) (in water, 308.15 K): 0.000202
solubility (mole fraction) (in water, 313.15 K): 0.00026
solubility (mole fraction) (in water, 318.15 K): 0.000323
solubility (mole fraction) (in water, 323.15 K): 0.000399
